Results published in paper PMC9968691, “Perfluoroalkyl substances (PFASs) are substrates of the renal human organic anion transporter 4 (OAT4)” (Archives of Toxicology, 2022).
Entries after “also recorded” stand apart in the source; their conditions may differ. Marks after values point to notes of the source that are not given here.

What was measured:
[1] = target: T1, human OAT4 (Homo sapiens, UniProt Q9NSA0); test: Screening of cellular PFAS accumulation in OAT4-transfected vs control-transfected HEK293 cells (PFAS mixture); type: cell-based; conditions: for Transport by OAT4 (cellular PFAS level in OAT4-transfected vs control-transfected cells; substantial = at least twofold higher): PFAS mixture, each 1 µM, 10 min; for OAT4 substrate: yes/no as identified in vitro in this study
T1 construct: expressed in transfected cells; host or cells: HEK293 cells transduced with recombinant baculovirus (CMV promoter)
T1 sequence (Q9NSA0 1-550): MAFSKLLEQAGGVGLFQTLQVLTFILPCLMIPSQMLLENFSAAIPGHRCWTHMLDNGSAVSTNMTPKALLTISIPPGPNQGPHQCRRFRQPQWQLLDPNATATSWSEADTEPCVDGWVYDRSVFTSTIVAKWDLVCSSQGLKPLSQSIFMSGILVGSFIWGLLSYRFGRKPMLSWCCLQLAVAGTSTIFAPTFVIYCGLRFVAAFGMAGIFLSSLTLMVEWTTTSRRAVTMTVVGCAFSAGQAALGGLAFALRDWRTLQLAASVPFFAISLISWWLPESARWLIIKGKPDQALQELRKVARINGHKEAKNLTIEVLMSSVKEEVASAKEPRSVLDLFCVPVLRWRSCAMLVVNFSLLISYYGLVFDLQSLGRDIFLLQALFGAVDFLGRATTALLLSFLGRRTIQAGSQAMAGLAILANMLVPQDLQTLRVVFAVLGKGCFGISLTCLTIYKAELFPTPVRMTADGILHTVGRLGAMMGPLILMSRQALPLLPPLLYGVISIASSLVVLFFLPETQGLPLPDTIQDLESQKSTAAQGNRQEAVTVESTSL
Source text: (§1) The recombinant baculoviruses that contain the cDNA of human transporters OAT4 and URAT1 downstream of a cytomegalovirus (CMV) promotor were generated as previously described (Smeets et al. [2020]). As a negative control, baculovirus containing the gene for enhanced yellow fluorescence protein (eYFP) was produced similarly. Moreover, transduction of HEK293 cells and uptake assays were essentially performed as previously described (Smeets et al. [2020]). The culture medium was removed and cells were washed with buffer (HBSS plus 10 mM HEPES, pH 7.4). Uptake was initiated by replacing this solution with 150 µL of fresh transport buffer (HBSS (Life Technologies Invitrogen (Carlsbad, CA, USA))-HEPES (Sigma-Aldrich), pH 7.4) supplemented with the PFASs for 10 min. To terminate the reaction, transport buffer was replaced with 400 µL ice-cold HBSS-HEPES buffer containing 0.5% BSA (m/v; Roche Diagnostics GmbH (Mannheim, Germany)), after which the cells were washed twice with ice-cold HBSS-HEPES. Cellular PFAS concentrations were determined based on the method described by Rosenmai et al. ([2018]). Briefly, cells were solubilised in 250 µL lysis buffer and cell lysates were stored in Eppendorf tubes at − 80 °C and defrozen when needed for LC–MS analysis and for quantification of the protein concentration.
(§2) To 50 μL cell lysate, 850 μL methanol (Actu-All Chemicals, Oss, The Netherlands) containing internal standards (^13C4-PFHpA, ^13C4-PFOA, ^13C5-PFNA, ^13C2-PFDA, ^13C3-PFBS, ^18O2-PFHxS and ^13C4-PFOS (Wellington Laboratories, Canada) was added. These dilutions were vortexed well before centrifugation at maximum speed for 10 min at 4 °C. PFAS concentrations in the supernatant were determined using LC–MS/MS analysis. If required, samples were further diluted with methanol and containing internal standards. LC–MS/MS analysis was based on a Shimadzu UHPLC system containing: 2 pumps (LC 20AD xr); column oven (Shimadzu CTO-20AC); pump switch (Shimadzu FCV-11AL); degasser (Shimadzu DGU-20A3); and sample tray holder (Shimadzu SIL-20 AC XR model) (Shimadzu Corporation, Kyoto, Japan). An Acquity BEH-C18 analytical column (50 × 2.1 mm i.d., 1.7 μm, Waters, Milford, MA, USA) was used to separate the PFASs at a column temperature of 35 °C. In addition, a symmetry C18 analytical column (50 × 2.1 mm i.d., 5 µm, Waters, Milford, MA, USA) was used as a guard column, placed between the pump and the injector valve to isolate and delay interferences out of the LC system. The mobile phase consisted of 2 mM ammonium acetate (Merck Millipore, Darmstadt, Germany) in Milli-Q water (prepared using a Milli-Q system with a resistivity of at least 18.2 MΩ cm^−1 (Merck Millipore)) (mobile phase A) and Acetonitrile ULC/MS grade (Actu-All Chemicals, Oss, The Netherlands) (mobile phase B). The injection volume used was 20 μL. The chromatographic gradient was operated at a flow rate of 0.3 mL min^−1 starting from 25% mobile phase B in the first 0.1 min, a linear increase to 100% B in 6 min with a final hold of 2.5 min. The gradient was returned to 25% B within 0.1 min for 3.9 min to equilibrate before the next injection, resulting in a total run of 12.5 min.
(§3) Cellular PFAS content was normalised to cellular protein. To that end, from each cell lysate, 25 µL was used to determine the protein concentration (technical duplicate) using the Pierce BCA Protein Assay Kit (Thermo Scientific, Waltham, MA). First, samples were diluted two times with lysis buffer directly in a 96-wells plate (PS, F-bottom, clear; Greiner Bio-One, Alphen aan de Rijn, The Netherlands), and in each plate, a BSA standard curve (0.05–2 mg mL^−1 in lysis buffer) was included allowing protein quantification of the samples. The manufacturer’s protocol was followed for the subsequent steps and absorbance was measured using a microplate reader (Synergy™ HT BioTek, Winooski, VT) at 562 nm. […]

[2] = system: albumin; conditions: cited from earlier work; for Reported albumin/water partition coefficients: ref Allendorf et al. (2019)
[3] = cited from earlier work; for Reported half-life in humans: (average) serum half-life, ref Xu et al. (2020) for PFHpA, Olsen et al. (2007), Li et al. (2018), Xu et al. (2020) for PFOA, PFHxS, PFOS, Olsen et al. (2009) for PFBS; for Reported (average) serum half-life in humans: ref Olsen et al. (2009) for PFBS, Xu et al. (2020) for PFHpA
[4] = target: T2, human URAT1 (Homo sapiens, UniProt Q96S37); test: Screening of cellular PFAS accumulation in URAT1-transfected vs control-transfected HEK293 cells (PFAS mixture); type: cell-based; conditions: yes/no as identified in vitro in this study
T2 construct: expressed in transfected cells; host or cells: HEK293 cells transduced with recombinant baculovirus (CMV promoter)
T2 sequence (Q96S37 1-553): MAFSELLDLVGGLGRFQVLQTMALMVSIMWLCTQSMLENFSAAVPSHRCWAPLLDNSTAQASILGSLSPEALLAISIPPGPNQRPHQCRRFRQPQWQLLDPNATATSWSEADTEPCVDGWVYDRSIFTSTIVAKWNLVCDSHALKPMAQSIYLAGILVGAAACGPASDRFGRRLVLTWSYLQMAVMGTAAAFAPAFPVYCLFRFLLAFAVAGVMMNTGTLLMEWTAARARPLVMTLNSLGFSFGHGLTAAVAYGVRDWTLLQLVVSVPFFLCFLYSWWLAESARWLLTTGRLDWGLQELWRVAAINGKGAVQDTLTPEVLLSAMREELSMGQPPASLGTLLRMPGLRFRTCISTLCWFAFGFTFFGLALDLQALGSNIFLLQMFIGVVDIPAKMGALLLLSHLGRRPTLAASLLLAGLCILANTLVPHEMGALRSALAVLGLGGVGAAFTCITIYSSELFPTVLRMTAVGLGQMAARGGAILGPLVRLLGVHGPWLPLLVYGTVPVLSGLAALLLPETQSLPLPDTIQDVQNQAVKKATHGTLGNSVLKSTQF
Source text: as §1, §2, §3

Compound | Transport by OAT4 (cellular PFAS level in OAT4-transfected vs control-transfected cells; substantial = at least twofold higher) [1] | OAT4 substrate [1] | Binding to albumin ([2]; compared to the other PFASs, ref Allendorf et al. 2019, Gao et al. 2019, Lu et al. 2021) | Reported half-life in humans [3] | Reported (average) serum half-life in humans [3] [days] | URAT1 substrate [4] | Reported albumin/water partition coefficients [2] [L/kg]
O=S(=O)(O)C(F)(F)C(F)(F)C(F)(F)C(F)(F)F [PFBS, perfluorobutane sulfonate] | rather limited; also recorded: limited transport | No | relatively low binding to albumin | 0.07–0.12^d years | 26 to 44 | No | –
O=C(O)C(F)(F)C(F)(F)C(F)(F)C(F)(F)C(F)(F)C(F)(F)C(F)(F)C(F)(F)C(F)(F)F [PFDA, perfluorodecanoic acid] | substantial transport; also recorded: more than twofold increase | Yes | – | – | – | No | 4.7
O=C(O)C(F)(F)C(F)(F)C(F)(F)C(F)(F)C(F)(F)C(F)(F)F [PFHpA, Perfluoroheptanoic acid] | substantial transport; also recorded: more than twofold increase | Yes | – | 0.17^b years | 62 | No | 4.0
O=S(=O)(O)C(F)(F)C(F)(F)C(F)(F)C(F)(F)C(F)(F)C(F)(F)F [PFHxS, Perfluorohexane sulfonate] | substantial transport; also recorded: more than twofold increase | Yes | – | 2.9–8.5^c years | – | No | –
